Reference: patent publication US20240246955A1, “TROPOMYOSIN RECEPTOR KINASE (TRK) DEGRADATION COMPOUNDS AND METHODS OF USE” (CULLGEN (SHANGHAI), INC., priority 2021, published 2024)

Key:
Format in all cases: cell-based
KM12 cells = experiment: KM12 cell viability assay (CellTiter-Glo); conditions: Homo sapiens, 72 h; KM12 cells, 3 days, CellTiter-Glo
Protocol: The kinase activity of TRK is known to play important roles in tumors expressing TRK-fusion proteins, as TRK kinase inhibitors compromise cell proliferation, survival, and induce marked clinical responses (Amatu et al., 2016; Drilon et al., 2018; Drilon et al., 2017; Khotskaya et al., 2017). KM12 cells seeded in 96-well plates were treated with heterobifunctional compounds following a 11-point 3-fold serial dilution. Three days after treatment, cell viability was determined using the CellTiter-Glo kit, and normalized to the mean values of 3 replicates of untreated cells. Dose-dependent response was analyzed following the least-squares non-linear regression method using the GraphPad Prism software. Each data point in the figure represents the mean values of three technical replicates ±standard deviation.
KM12 cells seeded in 96-well plates were treated with heterobifunctional compounds following a 11-point 3-fold serial dilution for 3 days.
(§1) KM12, TRKA G595R mutated KM12, HEL, and other cells were cultured at 37° C. with 5% CO2 in DMEM or RPMI 1640 Medium supplemented with 10% fetal bovine serum. Cells were authenticated using the short tandem repeat (STR) assays. Mycoplasma test results were negative.
(§2) Cells were seeded at a density of 5000 cells per well in 96-well assay plates and treated with test compounds following a 11-point 3-fold serial dilution. Three days later, cell viability was determined using the CellTiter-Glo assay kit (Promega) according to the manufacturer's instructions. The dose-response curves were determined and IC50 values were calculated using the GraphPad Prism software following a nonlinear regression (least squares fit) method.

TPM3-TRKA fusion protein = target: T1, TPM3-TRKA fusion protein (Homo sapiens, UniProt P04629); experiment: TPM3-TRKA degradation in KM12 cells (Western blot); conditions: 16 hours, TRK protein, immunoblot; for inhibition at 0.1 µM: 100 nM; for inhibition at 0.01 µM: 10 nM
T1 construct: TPM3 (N-terminal part of tropomyosin alpha-3, natural fusion partner); endogenous in cells; host or cells: KM12 colon cancer cells; the other entry of the earlier key: TPM3 (P06753, Tropomyosin alpha-3 chain)
Protocol: Specific exemplary heterobifunctional compounds were characterized in KM12 cells. KM12 cells that express TPM3-TRKA fusion protein were treated with 10 nM or 100 nM heterobifunctional compounds disclosed herein or their corresponding warheads/inhibitors for 16 hours. Cells were collected, lysed and subject to immunoblotting using an antibody specific to TRK proteins.
KM12 cells were treated with heterobifunctional compounds at 10 nM or 100 nM for 16 hours.
Cultured cells were washed with cold PBS once and lysed in cold RIPA buffer supplemented with protease inhibitors and phosphatase inhibitors (Beyotime Biotechnology). The solutions were then incubated at 4° C. for 30 minutes with gentle agitation to fully lyse cells. Cell lysates were centrifuged at 13,000 rpm for 10 minutes at 4° C. and pellets were discarded. Total protein concentrations in the lysates were determined by BCA assays (Beyotime Biotechnology). Cell lysates were mixed with Laemmli loading buffer to 1× and heated at 99° C. for 5 min. Proteins were resolved on SDS-PAGE and visualized by chemiluminescence. Images were taken by a ChemiDoc MP Imaging system (Bio-Rad). Protein bands were quantitated using the software provided by Bio-Rad.
The percentage of TRK protein degradation of each compound at 10 nM and 100 nM was determined in KM12 cells as described in Methods. The percentage of degradation of each compound was indicated in the following categories: N/A: data not available; −: no degradation; +: degradation less than 50%; ++: degradation equal or greater than 50% but less than […]; +++: degradation equal or greater than 80%.

[1] = test system: TRKA G595R mutated KM12 cells; experiment: Cell viability assay in TRKA G595R mutated KM12 cells (CellTiter-Glo); conditions: Homo sapiens, 72 h, 3 days
Protocol: as §1, §2
The activities of selected compounds on cell viability (IC50 values) and TMP3-TRKA degradation (percentage degradation at 10 nM) in KM12 cells or KM12-G595R mutated KM12 cells (KM12-G595R) are listed in Table 2.

T1 sequence (P04629 with tags, fused parts or gaps): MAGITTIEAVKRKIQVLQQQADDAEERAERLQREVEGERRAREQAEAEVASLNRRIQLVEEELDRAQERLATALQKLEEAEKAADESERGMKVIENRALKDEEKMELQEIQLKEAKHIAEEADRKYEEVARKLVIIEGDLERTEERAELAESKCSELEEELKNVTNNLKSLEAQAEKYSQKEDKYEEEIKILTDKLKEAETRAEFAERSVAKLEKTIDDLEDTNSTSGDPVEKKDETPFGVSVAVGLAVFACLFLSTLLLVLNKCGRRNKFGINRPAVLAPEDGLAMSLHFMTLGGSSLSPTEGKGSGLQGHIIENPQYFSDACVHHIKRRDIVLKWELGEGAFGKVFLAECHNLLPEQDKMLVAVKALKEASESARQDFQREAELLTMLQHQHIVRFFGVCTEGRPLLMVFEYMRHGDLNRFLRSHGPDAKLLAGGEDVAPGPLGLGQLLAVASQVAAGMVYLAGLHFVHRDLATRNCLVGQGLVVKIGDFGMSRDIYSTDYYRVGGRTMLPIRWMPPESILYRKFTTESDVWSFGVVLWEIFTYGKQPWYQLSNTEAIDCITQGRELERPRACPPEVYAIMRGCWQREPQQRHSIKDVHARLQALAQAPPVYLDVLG

Compound	IC50 (KM12 cells)	inhibition at 0.1 µM (TPM3-TRKA fusion protein)	IC50 [1]	inhibition at 0.01 µM (TPM3-TRKA fusion protein)
COCCN1C[C@@H](NC(=O)Nc2c(C)c(-c3cnc(N4CCN(C(=O)CCCCCOc5cc(-c6scnc6C)ccc5CNC(=O)[C@@H]5C[C@@H](O)CN5C(=O)[C@@H](NC(=O)C5(F)CC5)C(C)(C)C)CC4)nc3)nn2-c2ccccc2)[C@H](c2cccc(F)c2)C1 [CPD-020, (2S,4R)-1-((S)-2-(1-fluorocyclopropane-1-carboxamido)-3,3-dimethylbutanoyl)-N-(2-((6-(4-(5-(5-(3-((3S,4R)-4-(3-fluorophenyl)-1-(2-methoxyethyl)pyrrolidin-3-yl)ureido)-4-methyl-1-phenyl-1H-pyrazol-3-yl)pyrimidin-2-yl)piperazin-1-yl)-6-oxohexyl)oxy)-4-(4-methylthiazol-5-yl)benzyl)-4-hydroxypyrrolidine-2-carboxamide]	293 nM	50 to 800%		
COCCN1C[C@@H](NC(=O)Nc2c(C)c(-c3cnc(N4CCN(C(=O)COc5ccc6c(c5)C(=O)N(C5CCC(=O)NC5=O)C6=O)CC4)nc3)nn2-c2ccccc2)[C@H](c2cccc(F)c2)C1 (stereo partly drawn) [CPD-023, 1-(3-(2-(4-(2-((2-(2,6-dioxopiperidin-3-yl)-1,3-dioxoisoindolin-5-yl)oxy)acetyl)piperazin-1-yl)pyrimidin-5-yl)-4-methyl-1-phenyl-1H-pyrazol-5-yl)-3-((3S,4R)-4-(3-fluorophenyl)-1-(2-methoxyethyl)pyrrolidin-3-yl)urea]	6.46 nM	> 80%	44 nM	> 80%
COCCN1C[C@@H](NC(=O)Nc2c(C)c(-c3cnc(N4CCN(C(=O)COc5cccc6c5C(=O)N(C5CCC(=O)NC5=O)C6=O)CC4)nc3)nn2-c2ccccc2)[C@H](c2cccc(F)c2)C1 (stereo partly drawn) [CPD-024, 1-(3-(2-(4-(2-((2-(2,6-dioxopiperidin-3-yl)-1,3-dioxoisoindolin-4-yl)oxy)acetyl)piperazin-1-yl)pyrimidin-5-yl)-4-methyl-1-phenyl-1H-pyrazol-5-yl)-3-((3S,4R)-4-(3-fluorophenyl)-1-(2-methoxyethyl)pyrrolidin-3-yl)urea]	86.9 nM	50 to 800%	314 nM	< 50%
COCCN1C[C@@H](NC(=O)Nc2c(C)c(-c3cnc(N4CCN(C(=O)CCc5cccc6c5C(=O)N(C5CCC(=O)NC5=O)C6=O)CC4)nc3)nn2-c2ccccc2)[C@H](c2cccc(F)c2)C1 (stereo partly drawn) [CPD-025, 1-(3-(2-(4-(3-(2-(2,6-dioxopiperidin-3-yl)-1,3-dioxoisoindolin-4-yl)propanoyl)piperazin-1-yl)pyrimidin-5-yl)-4-methyl-1-phenyl-1H-pyrazol-5-yl)-3-((3S,4R)-4-(3-fluorophenyl)-1-(2-methoxyethyl)pyrrolidin-3-yl)urea]	30 nM	50 to 800%	158 nM	< 50%
COCCN1C[C@@H](NC(=O)Nc2c(C)c(-c3cnc(N4CCN(C(=O)CCc5ccc6c(c5)C(=O)N(C5CCC(=O)NC5=O)C6=O)CC4)nc3)nn2-c2ccccc2)[C@H](c2cccc(F)c2)C1 (stereo partly drawn) [CPD-026, 1-(3-(2-(4-(3-(2-(2,6-dioxopiperidin-3-yl)-1,3-dioxoisoindolin-5-yl)propanoyl)piperazin-1-yl)pyrimidin-5-yl)-4-methyl-1-phenyl-1H-pyrazol-5-yl)-3-((3S,4R)-4-(3-fluorophenyl)-1-(2-methoxyethyl)pyrrolidin-3-yl)urea]	42.1 nM	> 80%	301 nM	> 80%
COCCN1C[C@@H](NC(=O)Nc2c(C)c(-c3cnc(N4CCN(CCOc5cccc6c5C(=O)N(C5CCC(=O)NC5=O)C6=O)CC4)nc3)nn2-c2ccccc2)[C@H](c2cccc(F)c2)C1 (stereo partly drawn) [CPD-027, 1-(3-(2-(4-(2-((2-(2,6-dioxopiperidin-3-yl)-1,3-dioxoisoindolin-4-yl)oxy)ethyl)piperazin-1-yl)pyrimidin-5-yl)-4-methyl-1-phenyl-1H-pyrazol-5-yl)-3-((3S,4R)-4-(3-fluorophenyl)-1-(2-methoxyethyl)pyrrolidin-3-yl)urea]	3.13 nM	50 to 800%	4.47 nM	50 to 800%
COCCN1C[C@@H](NC(=O)Nc2c(C)c(-c3cnc(N4CCN(CCOc5ccc6c(c5)C(=O)N(C5CCC(=O)NC5=O)C6=O)CC4)nc3)nn2-c2ccccc2)[C@H](c2cccc(F)c2)C1 (stereo partly drawn) [CPD-028, 1-(3-(2-(4-(2-((2-(2,6-dioxopiperidin-3-yl)-1,3-dioxoisoindolin-5-yl)oxy)ethyl)piperazin-1-yl)pyrimidin-5-yl)-4-methyl-1-phenyl-1H-pyrazol-5-yl)-3-((3S,4R)-4-(3-fluorophenyl)-1-(2-methoxyethyl)pyrrolidin-3-yl)urea]	4.1 nM	50 to 800%	30.4 nM	> 80%
COCCN1C[C@@H](NC(=O)Nc2c(C)c(-c3cnc(N4CCN(CCCc5cccc6c5C(=O)N(C5CCC(=O)NC5=O)C6=O)CC4)nc3)nn2-c2ccccc2)[C@H](c2cccc(F)c2)C1 (stereo partly drawn) [CPD-029, 1-(3-(2-(4-(3-(2-(2,6-dioxopiperidin-3-yl)-1,3-dioxoisoindolin-4-yl)propyl)piperazin-1-yl)pyrimidin-5-yl)-4-methyl-1-phenyl-1H-pyrazol-5-yl)-3-((3S,4R)-4-(3-fluorophenyl)-1-(2-methoxyethyl)pyrrolidin-3-yl)urea]	13.4 nM	50 to 800%	277 nM	< 50%
COCCN1C[C@@H](NC(=O)Nc2c(C)c(-c3cnc(N4CCN(CCNc5cccc6c5C(=O)N(C5CCC(=O)NC5=O)C6=O)CC4)nc3)nn2-c2ccccc2)[C@H](c2cccc(F)c2)C1 (stereo partly drawn) [CPD-030, 1-(3-(2-(4-(2-((2-(2,6-dioxopiperidin-3-yl)-1,3-dioxoisoindolin-4-yl)amino)ethyl)piperazin-1-yl)pyrimidin-5-yl)-4-methyl-1-phenyl-1H-pyrazol-5-yl)-3-((3S,4R)-4-(3-fluorophenyl)-1-(2-methoxyethyl)pyrrolidin-3-yl)urea]	1.09 nM	50 to 800%	5.13 nM	50 to 800%
COCCN1C[C@@H](NC(=O)Nc2c(C)c(-c3cnc(N4CCN(CCCc5ccc6c(c5)C(=O)N(C5CCC(=O)NC5=O)C6=O)CC4)nc3)nn2-c2ccccc2)[C@H](c2cccc(F)c2)C1 (stereo partly drawn) [CPD-032, 1-(3-(2-(4-(3-(2-(2,6-dioxopiperidin-3-yl)-1,3-dioxoisoindolin-5-yl)propyl)piperazin-1-yl)pyrimidin-5-yl)-4-methyl-1-phenyl-1H-pyrazol-5-yl)-3-((3S,4R)-4-(3-fluorophenyl)-1-(2-methoxyethyl)pyrrolidin-3-yl)urea]	13.7 nM	> 80%	18.2 nM	> 80%
COCCN1C[C@@H](NC(=O)Nc2c(C)c(-c3cnc(N4CCN(CCc5ccc6c(c5)C(=O)N(C5CCC(=O)NC5=O)C6=O)CC4)nc3)nn2-c2ccccc2)[C@H](c2cccc(F)c2)C1 (stereo partly drawn) [CPD-033, 1-(3-(2-(4-(2-(2-(2,6-dioxopiperidin-3-yl)-1,3-dioxoisoindolin-5-yl)ethyl)piperazin-1-yl)pyrimidin-5-yl)-4-methyl-1-phenyl-1H-pyrazol-5-yl)-3-((3S,4R)-4-(3-fluorophenyl)-1-(2-methoxyethyl)pyrrolidin-3-yl)urea]	14.4 nM	50 to 800%	94.6 nM	50 to 800%
